Drawing on PubChem BioAssay (NCI), this text covers TGI for three compounds.

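Step 1: Grow cells in 96-well plates. Step 2: Expose to compound for 48 hours at 5 concentrations. Step 3: Interpolate endpoints linearly; if unreached, use highest concentration. TGI: total growth inhibition.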 Bounds are passed on as bounds.

For orientation: TGI means the concentration giving total growth inhibition. Read a low TGI as more potent growth arrest.

Holding throughout (experiment): DTP human tumour cell line panel, 48 h
Assay [1] concerns UO-31 renal.
In assay [2] the test system is NCI-H460 lung.
The test system of assay [3] is SN12C renal.
The subject of assay [4] is HOP-62 NSCLC.
In assay [5] the test system is EKVX NSCLC.
Assay [6] concerns LOX IMVI melanoma.
The subject of assay [7] is KM12 colon.
For assay [8], the system named is A549 NSCLC.
Assay [9] relates to SR leukemia.
The subject of assay [10] is RPMI-8226 leukemia.
For assay [11], the system named is OVCAR-8 ovarian.
The subject of assay [12] is MALME-3M melanoma.
Assay [13] concerns A498 renal.
Assay [14] deals with SNB-19 CNS.
For assay [15], the system named is NCI-H23 lung.
The subject of assay [16] is U251 CNS.
Assay [17] concerns SK-MEL-5 melanoma.
The test system of assay [18] is NCI-H226 lung.
Assay [19] relates to SF-268 CNS.
The test system of assay [20] is SW-620 colon.

Take `O=c1cnn(C/C=C\CO)c(=O)[nH]1`: the TGI in assay [1], in assay [2], in assay [3], in [4], in [5] and in [6] was above 100 µM throughout. Moreover, the TGI in assay [7], in assay [8], in assay [9], in assay [10], in assay [11] and in [12] was above 100 µM each time. Further, the TGI in [13], in assay [14], in assay [15], in assay [16], in [17] and in assay [18] was above 100 µM in each case. In addition, the TGI in assay [19] and in assay [20] was above 100 µM in each case.
For `O=C(Nc1cccc2ccccc12)Oc1ccccc1C1CCCCC1`, the TGI came to 34.6 µM in [1]; 33 µM in assay [2]; 30.1 µM in [3]; 33.1 µM in assay [4]; 65.9 µM in assay [5]; 31.1 µM in assay [6]. Also, the TGI stood at 41.7 µM in [7]; 44.1 µM in assay [8]; 57 µM in assay [9]; 81.9 µM in assay [10]; 32.5 µM in assay [11]; 35.1 µM in assay [12]. Also, the TGI in assay [13] was 31.5 µM; in assay [14], above 100 µM; in assay [15] it was 33.7 µM; in assay [16] it was 26.7 µM; in [17] it was 28.8 µM; in assay [18], 32.7 µM. Besides, the values for the TGI in assay [19] and in assay [20] were 98.9 µM and 40 µM, respectively.
For `Cn1cnc([N+](=O)[O-])c1Sc1nc2cc(Cl)c(F)cc2[nH]1`, the TGI in [1] was 27.6 µM; in assay [2], 27.7 µM; in assay [3], 29.7 µM; in [4], above 100 µM; in assay [5] it was 16.5 µM; in assay [6] it was 39.7 µM. In addition, the TGI in assay [7] worked out at 36.6 µM; in [8], 54.3 µM; in assay [9] it was 12.4 µM; in assay [10], 40.3 µM; in assay [11] it was 23.2 µM; in assay [12], 27.5 µM. Besides, the TGI in [13] was 51 µM; in assay [14], above 100 µM; in [15], 31.3 µM; in assay [16] it was 24 µM; in assay [17], 24 µM; in assay [18], 33 µM. The TGI in assay [19] is 29.5 µM; in assay [20] it was 22.4 µM.
